Test [1] deals with T1, Mo-reducing enzyme.
T1 construct: native protein purified from cytoplasmic fraction (Mono Q twice, Zorbax GF-250); monomer, 105 kDa by gel filtration, 100 kDa by SDS-PAGE
The test is described as follows: initial rates of Mo blue formation, absorbance at […] nm, nonlinear regression. The test is classed as biochemical, Serratia sp. DRY5. The settings on record: assay 50 mM citrate phosphate pH 5.0, room temperature, read-out: apparent Km.

For test [2], the target named is T1, Mo-reducing enzyme. The test is described as follows: Mo blue formation assay, […] nm. Format: biochemical, Serratia sp. DRY5. The conditions noted are these: general reagent, assay with 12-MP and NADH; for pIC50: read-out: Concentrations which decrease enzyme activity by 50%.

pIC50: −log10 of the molar value. Like-named read-outs stand apart in the source and are kept apart here.

In the case of 12-MP, the Km (as a rule, the substrate concentration at which the rate is half of its maximum) with Mo-reducing enzyme [1] (5 mM NADH, electron acceptor) was determined as 3870 µM. On to `OCCS` [2-Mercaptoethanol], for which, on Mo-reducing enzyme [2] (thiol), the pIC50 is 2.30.

In the case of `OC(CS)C(O)CS` (stereo not drawn) [DTT], the pIC50 on Mo-reducing enzyme [2] (thiol) was 2.00. For `O=C(O)CN(CCN(CC(=O)O)CC(=O)O)CC(=O)O` [EDTA], at Mo-reducing enzyme [2] (metal chelator), the pIC50 is 4.00. As to `NC(=O)C1=CN([C@@H]2O[C@H](COP(=O)(O)OP(=O)(O)OC[C@H]3O[C@@H](n4cnc5c(N)ncnc54)[C@H](O)[C@@H]3O)[C@@H](O)[C@H]2O)C=CC1` [NADH], in the test with Mo-reducing enzyme [1] (15 mM 12-MP, electron donor), the Km worked out at 790 µM. For `CCCCCCCCCCCCOS(=O)(=O)O` [SDS], the “Concentrations which decrease enzyme activity by 50%” value at Mo-reducing enzyme [2] (denaturing detergent) came to 0.1%.

For the origin of these results see article PMC3958783, “Molybdenum Reduction to Molybdenum Blue in Serratia sp. Strain DRY5 Is Catalyzed by a Novel Molybdenum-Reducing Enzyme” (BioMed Research International, 2014).
